Source: paper PMC8458504, “Targeting the actin nucleation promoting factor WASp provides a therapeutic approach for hematopoietic malignancies” (Nature Communications, 2021)

Target: T1, YFP-WASp wt (Wiskott–Aldrich Syndrome protein) (Homo sapiens, UniProt P42768)
T1 construct: gene WAS; full-length wild type, YFP-tagged, transiently expressed in HEK 293T (endogenous WIP present); diluted whole-cell lysate, not purified
T1 sequence (P42768 2-502): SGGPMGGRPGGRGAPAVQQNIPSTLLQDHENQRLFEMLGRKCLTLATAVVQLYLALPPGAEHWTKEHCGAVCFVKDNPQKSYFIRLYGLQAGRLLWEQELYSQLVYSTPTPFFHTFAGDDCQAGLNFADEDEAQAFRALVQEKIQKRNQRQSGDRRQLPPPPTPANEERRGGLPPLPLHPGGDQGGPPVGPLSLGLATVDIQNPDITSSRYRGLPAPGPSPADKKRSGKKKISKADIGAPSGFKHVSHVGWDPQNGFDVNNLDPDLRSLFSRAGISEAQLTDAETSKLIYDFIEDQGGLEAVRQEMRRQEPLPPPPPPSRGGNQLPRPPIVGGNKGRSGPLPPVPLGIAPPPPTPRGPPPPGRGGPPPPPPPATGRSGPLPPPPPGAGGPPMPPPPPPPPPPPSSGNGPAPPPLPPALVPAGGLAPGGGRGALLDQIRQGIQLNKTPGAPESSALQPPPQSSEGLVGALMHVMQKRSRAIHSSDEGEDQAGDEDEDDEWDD
Assay: microscale thermophoresis in diluted HEK […] lysate
Format: binding

COc1ccc(CN2C(=O)N(CC(C)C)C3(CCN(C4Cc5ccccc5C4)CC3)C2=O)cc1 [SMC #13, 8-(2,3-dihydro-1H-inden-2-yl)-1-isobutyl-3-(4-methoxybenzyl)-1,3,8-triazaspiro[4.5]decane-2,4-dione]
Kd: 30.8 ± 13.6 nM
